From patent publication US10703757B2, “Compounds and methods for CDK8 modulation and indications therefor” (Plexxikon Inc., priority 2016, dated 2020)

Columns and labels:
[1] = tested on: CDK8 (phosphorylation of STAT1 at serine 727 in A549 cells); assay: Cell based Phospho-STAT1 assay (IFNγ-stimulated A549 cells, AlphaLISA); conditions: Homo sapiens, A549, A549 cells, phospho-STAT1 after IFNγ stimulation
Summary of the method: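 A549 cells given serial compound dilutions for 1 h at 37 °C, then stimulated with IFNγ at 10 ng/mL final for 30 min. Lysate STAT1 Ser727 phosphorylation measured by AlphaLISA; % inhibition vs stimulated/unstimulated DMSO controls, IC50 by nonlinear regression.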

[2] = tested on: CDK8 (TCF/LEF luciferase reporter in HCT116 cells); assay: Cell based TCF/LEF reporter assay (HCT116+TCF/LEF luciferase); conditions: Homo sapiens, HCT-116, 24 h
Summary of the method: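 Luciferase readout was corrected for viability (CellTiter-Fluor) and scaled between DMSO high and 10 uM CCT251545 low controls, giving IC50 by nonlinear regression. Compounds, serially diluted, were incubated 24 h at 37 °C on HCT116 clones stably expressing a TCF/LEF-driven luciferase reporter.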

Row | SMILES | IC50 [1] | IC50 [2]
1 | Cc1ccc2cc(-c3cnn4cccc(C5CCC(C#N)CC5)c34)ccc2n1 (stereo not drawn) [Compound P-0194, 4-(3-(2-methylquinolin-6-yl)pyrazolo[1,5-a]pyridin-4-yl)cyclohexane-1-carbonitrile] | 0.1 to 100 nM | 0.1 to 100 nM
2 | CC(C)(O)Cn1cc(-c2ccc(-c3cnn4ccnc(C5CCC(C#N)CC5)c34)nc2)cn1 (stereo not drawn) [Compound P-0458, (1s,4s)-4-(3-(5-(1-(2-hydroxy-2-methylpropyl)-1H-pyrazol-4-yl)pyridin-2-yl)pyrazolo[1,5-a]pyrazin-4-yl)cyclohexane-1-carbonitrile] | 0.1 to 100 nM | 0.1 to 100 nM
3 | N#CCCn1cc(-c2ccc(-c3cnn4ccnc(C5CCC(C#N)CC5)c34)cc2)cn1 (stereo not drawn) [Compound P-0098, 4-(3-(4-(1-(2-cyanoethyl)-1H-pyrazol-4-yl)phenyl)pyrazolo[1,5-a]pyrazin-4-yl)cyclohexane-1-carbonitrile] | 0.1 to 100 nM | 0.1 to 100 nM
4 | N#CC1CC=C(c2cccn3ncc(-c4ccc(OCC(O)CN5CCCCC5)cc4)c23)CC1 (stereo not drawn) [Compound P-0128, 4-(3-(4-(2-hydroxy-3-(piperidin-1-yl)propoxy)phenyl)pyrazolo[1,5-a]pyridin-4-yl)cyclohex-3-ene-1-carbonitrile] | 0.1 to 100 nM | 0.1 to 100 nM
5 | N#CCCn1cc(-c2ccc(-c3cnn4ccnc(C5=CCC(C#N)CC5)c34)cc2)cn1 (stereo not drawn) [Compound P-0100, 4-(3-(4-(1-(2-cyanoethyl)-1H-pyrazol-4-yl)phenyl)pyrazolo[1,5-a]pyrazin-4-yl)cyclohex-3-ene-1-carbonitrile] | 0.1 to 100 nM | 0.1 to 100 nM
6 | Cn1ccc(-c2ccc(-c3cnn4cccc(C#CC(C)(C)O)c34)cc2)n1 [Compound P-0226, 2-methyl-4-(3-(4-(1-methyl-1H-pyrazol-3-yl)phenyl)pyrazolo[1,5-a]pyridin-4-yl)but-3-yn-2-ol] | 0.1 to 100 nM | 0.1 to 100 nM
7 | Cn1cc(-c2ccc(-c3cnn4cccc(C#CCOCCO)c34)cc2)cn1 [Compound P-0245, 2-((3-(3-(4-(1-methyl-1H-pyrazol-4-yl)phenyl)pyrazolo[1,5-a]pyridin-4-yl)prop-2-yn-1-yl)oxy)ethan-1-ol] | 0.1 to 100 nM | 100 to 1000 nM
8 | CS(=O)(=O)Nc1ccc2cc(-c3cnn4ccnc(C5=CCC(C#N)CC5)c34)ccc2c1 (stereo not drawn) [Compound P-0166, N-(6-(4-(4-cyanocyclohex-1-en-1-yl)pyrazolo[1,5-a]pyrazin-3-yl)naphthalen-2-yl)methanesulfonamide] | 0.1 to 100 nM | 0.1 to 100 nM
9 | CCn1cc(-c2ccc(-c3cnn4cccc(C#CC(C)(C)O)c34)cc2)cn1 [Compound P-0232, 4-(3-(4-(1-ethyl-1H-pyrazol-4-yl)phenyl)pyrazolo[1,5-a]pyridin-4-yl)-2-methylbut-3-yn-2-ol] | 0.1 to 100 nM | 0.1 to 100 nM
10 | Cn1cc(-c2ccc(-c3cnc4cccc(N5CCC6(CC5)C(=O)Nc5ccccc56)n34)cc2)cn1 [Compound P-0454, 1′-(3-(4-(1-methyl-1H-pyrazol-4-yl)phenyl)imidazo[1,2-a]pyridin-5-yl)spiro[indoline-3,4′-piperidin]-2-one] | 0.1 to 100 nM | 0.1 to 100 nM
11 | N#CC1CC=C(c2nccn3ncc(-c4ccc(-c5cnn(CC6CC6)c5)cc4)c23)CC1 (stereo not drawn) [Compound P-0034, 4-(3-(4-(1-(cyclopropylmethyl)-1H-pyrazol-4-yl)phenyl)pyrazolo[1,5-a]pyrazin-4-yl)cyclohex-3-ene-1-carbonitrile] | 0.1 to 100 nM | 0.1 to 100 nM
12 | Cc1ccncc1-c1ccc(-c2cnn3cccc(C#CC(C)(C)O)c23)cc1 [Compound P-0233, 2-methyl-4-(3-(4-(4-methylpyridin-3-yl)phenyl)pyrazolo[1,5-a]pyridin-4-yl)but-3-yl-2-ol] | 1000 to 10000 nM | 100 to 1000 nM
13 | N#CC1CCC(c2nccn3ncc(-c4ccc(-c5cnn(CC6(C#N)CC6)c5)c(F)c4)c23)CC1 (stereo not drawn) [Compound P-0018, (1s,4s)-4-(3-(4-(1-((1-cyanocyclopropyl)methyl)-1H-pyrazol-4-yl)-3-fluorophenyl)pyrazolo[1,5-a]pyrazin-4-yl)cyclohexane-1-carbonitrile] | 0.1 to 100 nM | 0.1 to 100 nM
14 | N#CC1CC=C(c2c(-c3ccc(-c4cnn(C(F)F)c4)cc3)cnc3[nH]ccc23)CC1 (stereo not drawn) [Compound P-0270, 4-(5-(4-(1-(difluoromethyl)-1H-pyrazol-4-yl)phenyl)-1H-pyrrolo[2,3-b]pyridin-4-yl)cyclohex-3-ene-1-carbonitrile] | 0.1 to 100 nM | 0.1 to 100 nM
15 | N#CC1CCN(c2cccn3ncc(-c4cccc(OCC(F)(F)F)c4)c23)CC1 [Compound P-0251, 1-(3-(3-(2,2,2-trifluoro-ethoxy)phenyl)pyrazolo[1,5-a]pyridin-4-yl)piperidine-4-carbonitrile] | 1000 to 10000 nM | 1000 to 10000 nM
